According to patent US20030040534A1, “Enantiomers of N-[[2'-[[(4,5-dimethyl-3-isoxazolyl)amino]sulfonyl]-4-(2-oxazolyl)[1,1'-biphenyl]-2-yl]methyl]-N,3,3-trimethylbutanamide” (priority 2001, published 2003):
Where two headings read alike, the source gives them in different places.

Assays:
[1] = target: T1, human endothelin A receptor (Homo sapiens, UniProt P25101); assay: In vitro ETA binding, attached cell assay, [125I]-ET-1 competition
T1 construct: expressed in transfected cells; host or cells: CHO-K1 (G-418 selected)
T1 sequence (P25101 21-427): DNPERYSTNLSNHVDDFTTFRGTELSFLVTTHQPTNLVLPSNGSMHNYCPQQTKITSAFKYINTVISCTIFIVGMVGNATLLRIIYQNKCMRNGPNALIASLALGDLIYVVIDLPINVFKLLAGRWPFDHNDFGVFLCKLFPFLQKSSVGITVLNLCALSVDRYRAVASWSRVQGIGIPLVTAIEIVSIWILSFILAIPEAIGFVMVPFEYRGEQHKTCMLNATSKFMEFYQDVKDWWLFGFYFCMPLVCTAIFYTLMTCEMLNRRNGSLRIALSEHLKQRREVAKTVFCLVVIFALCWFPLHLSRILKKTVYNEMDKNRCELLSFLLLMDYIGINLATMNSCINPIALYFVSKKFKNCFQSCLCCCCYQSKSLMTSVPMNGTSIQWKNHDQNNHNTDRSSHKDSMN
Procedure: The isolated atropisomers of Example 2 were tested for in vitro ETA binding according to the following procedure:
CHO-K1 cells expressing the human endothelin A receptor were cultured in Ham's F12 media (Gibco/BRL, Grand Island, N.Y.) with 10% fetal bovine serum (Hyclone), supplemented with 300 μg/mL Geneticin (G-418 Gibco BRL Products, Grand Island, N.Y.) and maintained at 37° C. with 5% CO2 in a humidified incubator. Forty eight hours prior to assay, the cells were treated with 0.25% trypsin-EDTA and were seeded in Falcon, 96 well tissue culture plates at a density of 1.5×10^4 cells/well (the monolayer should reach 80-90% confluency by the day of assay).
In the attached cell assay, culture media was aspirated from each well and the monolayers were washed with 75 μl of room temperature PBS (Mg^++, Ca^++ free). After the addition of 75 μl of cold binding buffer to each well, the plate was chilled at 4° C. for 3 minutes before the addition of competing drugs and isotope. The binding assay was performed in a total volume of 125 μl consisting of assay buffer, maintained at 4° C. (50 mM Tris, pH 7.4, including 1% BSA, and 2 μM phosphoramidon), and 25 μl of either 500 nM ET-1 (to define nonspecific binding) or competing drugs. The reaction was initiated with the addition of 25 μl of 0.25 nM [^125I]-ET-1 (New England Nuclear). Incubation was carried out with gentle orbital shaking, at 4° C., reaching equilibrium at 4 hours. The reaction was terminated by aspiration of the reaction buffer and two subsequent washes with room temperature PBS (Mg^++, Ca^++ free). The cells were dissociated by the addition of 100 μl of 0.5N NaOH followed by incubation for 40 minutes. Samples were then transferred from the 96 well format into tubes for counting in a Cobra gamma counter (Packard). Data was analyzed with curve fitting software by Sigma plot.
In each assay run that was performed, one sample of each atropisomer as well as one sample of racemate was tested for activity.

[2] = In vitro interconversion (racemization) of enantiomeric atropisomers under pseudo-physiological conditions, chiral HPLC
Procedure: The in vitro interconversion of N-[[2′-[[(4,5-dimethyl-3-isoxazolyl)amino]sulfonyl]-4-(2-oxazolyl)[1,1′-biphenyl]-2-yl]methyl]-N,3,3-trimethylbutanamide enantiomeric atropisomers was investigated using normal phase chiral HPLC with ultraviolet and laser polarimetric detection, under pseudo-physiological conditions, i.e., aqueous medium at 37° C., gastric fluid at 37° C. and human serum at 37° C.

[3] = Table 1, 97% pure atropisomers of Example 2, Run 1, CHO-K1 cells expressing human ETA, 4° C., read-out: IC50 (nM) Run 1
[4] = Table 1, 97% pure atropisomers of Example 2, Run 2, read-out: IC50 (nM) Run 2
[5] = Table 1, 97% pure atropisomers of Example 2, Run 3, read-out: IC50 (nM) Run 3
[6] = Table 1, 97% pure atropisomers of Example 2, Run 4, read-out: IC50 (nM) Run 4
[7] = Table 2, 99.2% pure atropisomers of Example 2, Run 1, read-out: IC50 (nM) Run 1
[8] = Table 2, 99.2% pure atropisomers of Example 2, Run 2, read-out: IC50 (nM) Run 2
[9] = Table 2, 99.2% pure atropisomers of Example 2, Run 3, read-out: IC50 (nM) Run 3
[10] = Table 2, 99.2% pure atropisomers of Example 2, Run 4, read-out: IC50 (nM) Run 4
[11] = Table 2, 99.2% pure atropisomers of Example 2, Run 5, read-out: IC50 (nM) Run 5
[12] = Table 2, 99.2% pure atropisomers of Example 2, Run 6, read-out: IC50 (nM) Run 6
[13] = Table 2, 99.2% pure atropisomers of Example 2, Run 7, read-out: IC50 (nM) Run 7
[14] = Table 2, 99.2% pure atropisomers of Example 2, Run 8, read-out: IC50 (nM) Run 8
[15] = Table 2, 99.2% pure atropisomers of Example 2, Run 9, read-out: IC50 (nM) Run 9

Row | SMILES | IC50 [1, 3] [nM] | IC50 [1, 4] [nM] | IC50 [1, 5] [nM] | IC50 [1, 6] [nM] | IC50 [1, 7] [nM] | IC50 [1, 8] [nM] | IC50 [1, 9] [nM] | IC50 [1, 10] [nM] | IC50 [1, 11] [nM] | IC50 [1, 12] [nM] | IC50 [1, 13] [nM] | IC50 [1, 14] [nM] | IC50 [1, 15] [nM] | also measured
1 | Cc1onc(NS(=O)(=O)c2ccccc2-c2ccc(-c3ncco3)cc2CN(C)C(=O)CC(C)(C)C)c1C (racemic) [Racemate, N-[[2′-[[(4,5-dimethyl-3-isoxazolyl)amino]sulfonyl]-4-(2-oxazolyl)[1,1′-biphenyl]-2-yl]methyl]-N,3,3-trimethylbutanamide] |  |  |  |  |  |  |  |  |  |  |  |  |  | IC50 ([1]; IC50 (nM) Run 1, Table 1, 97% pure atropisomers of Example 2, Run 1, CHO-K1 cells expressing human ETA, 4° C.): 0.12 nM; IC50 ([1]; IC50 (nM) Run 1, Table 2, 99.2% pure atropisomers of Example 2, Run 1): 0.018 nM; IC50 ([1]; IC50 (nM) Run 2, Table 1, 97% pure atropisomers of Example 2, Run 2): 0.24 nM; IC50 ([1]; IC50 (nM) Run 2, Table 2, 99.2% pure atropisomers of Example 2, Run 2): 0.08 nM; IC50 ([1]; IC50 (nM) Run 3, Table 1, 97% pure atropisomers of Example 2, Run 3): 0.21 nM; IC50 ([1]; IC50 (nM) Run 3, Table 2, 99.2% pure atropisomers of Example 2, Run 3): 0.4 nM; IC50 ([1]; IC50 (nM) Run 4, Table 1, 97% pure atropisomers of Example 2, Run 4): 0.1 nM; IC50 ([1]; IC50 (nM) Run 4, Table 2, 99.2% pure atropisomers of Example 2, Run 4): 0.3 nM; IC50 ([1]; IC50 (nM) Run 5, Table 2, 99.2% pure atropisomers of Example 2, Run 5): 0.2 nM; IC50 ([1]; IC50 (nM) Run 6, Table 2, 99.2% pure atropisomers of Example 2, Run 6): 0.4 nM; IC50 ([1]; IC50 (nM) Run 7, Table 2, 99.2% pure atropisomers of Example 2, Run 7): 0.24 nM; IC50 ([1]; IC50 (nM) Run 8, Table 2, 99.2% pure atropisomers of Example 2, Run 8): 0.16 nM; IC50 ([1]; IC50 (nM) Run 9, Table 2, 99.2% pure atropisomers of Example 2, Run 9): 0.27 nM; half-life [2]: 15.8 h; half-life ([2]; buffer): ~15 h
2 | Cc1onc(NS(=O)(=O)c2ccccc2-c2ccc(-c3ncco3)cc2CN(C)C(=O)CC(C)(C)C)c1C (single isomer, unassigned) [97% pure (+) dextrorotatory, N-[[2′-[[(4,5-dimethyl-3-isoxazolyl)amino]sulfonyl]-4-(2-oxazolyl)[1,1′-biphenyl]-2-yl]methyl]-N,3,3-trimethylbutanamide] | 0.03 | 0.01 | 0.01 | 0.01 | 0.002 | 0.002 | 0.7 | 0.1 | 0.3 | 0.38 | 0.34 | 0.38 | 0.41 | potency compared with the (−) levorotatory atropisomer or the racemate ([1]; endothelin antagonist, statement in words): remarkably higher potency
3 | Cc1onc(NS(=O)(=O)c2ccccc2-c2ccc(-c3ncco3)cc2CN(C)C(=O)CC(C)(C)C)c1C (single isomer, unassigned) [97% pure (−) levorotatory, N-[[2′-[[(4,5-dimethyl-3-isoxazolyl)amino]sulfonyl]-4-(2-oxazolyl)[1,1′-biphenyl]-2-yl]methyl]-N,3,3-trimethylbutanamide] | 0.41 | 0.9 | 0.6 | 1.4 | 0.1 | 0.65 | 6 | 5 | 7 | 3.7 | 21 | 14 | 19 | 
